Patent publication US11691980B2, “Liphagal analog and multi-targeted kinase inhibitor containing liphagal or analog thereof” (TOHOKU UNIVERSITY, priority 2017, dated 2023)

How the values were obtained:
Assay type in all cases: biochemical
NEK6 = molecular target: T1, NEK6 (Homo sapiens, UniProt Q9HC98); assay: mobility shift assay
T1 construct: purchased Carna Biosciences

AurA = molecular target: T2, AurA (Homo sapiens, UniProt O14965); assay: mobility shift assay
T2 construct: purchased Carna Biosciences

RSK1 = molecular target: T3, RSK1 (Homo sapiens, UniProt Q15418); assay: mobility shift assay
T3 construct: purchased Carna Biosciences

CLK1 = molecular target: T4, CLK1 (Homo sapiens, UniProt P49759); assay: mobility shift assay
T4 construct: purchased Carna Biosciences

NEK7 = molecular target: T5, NEK7 (Homo sapiens, UniProt Q8TDX7); assay: mobility shift assay
T5 construct: purchased Carna Biosciences

MST 1 = molecular target: T6, MST 1 (Homo sapiens, UniProt Q13043); assay: mobility shift assay
T6 construct: purchased Carna Biosciences

EPHA6 = molecular target: T7, EPHA6 (Homo sapiens, UniProt Q9UF33); assay: mobility shift assay
T7 construct: purchased Carna Biosciences

PYK2 = molecular target: T8, PYK2 (Homo sapiens, UniProt Q14289); assay: mobility shift assay
T8 construct: purchased Carna Biosciences

PRKX = molecular target: T9, PRKX (Homo sapiens, UniProt P51817); assay: mobility shift assay
T9 construct: purchased Carna Biosciences

PLK2 = molecular target: T10, PLK2 (Homo sapiens, UniProt Q9NYY3); assay: IMAP Assay
T10 construct: purchased Carna Biosciences

CDK5/p25 = molecular target: T11, CDK5/p25 (Homo sapiens, UniProt Q00535); assay: mobility shift assay
T11 construct: purchased Carna Biosciences

MLK1_Cascade = molecular target: T12, MLK1_Cascade (Homo sapiens, UniProt P80192); assay: mobility shift assay
T12 construct: purchased Carna Biosciences

TRKB = molecular target: T13, TRKB (Homo sapiens, UniProt Q16620); assay: mobility shift assay
T13 construct: purchased Carna Biosciences

TAK1-TAB1_Cascade = molecular target: T14, TAK1-TAB1_Cascade (Homo sapiens, UniProt O43318); assay: mobility shift assay
T14 construct: purchased Carna Biosciences

PBK = molecular target: T15, PBK (Homo sapiens, UniProt Q96KB5); assay: mobility shift assay
T15 construct: purchased Carna Biosciences

TRKC = molecular target: T16, TRKC (Homo sapiens, UniProt Q16288); assay: mobility shift assay
T16 construct: purchased Carna Biosciences

LCK = molecular target: T17, LCK (Homo sapiens, UniProt P06239); assay: mobility shift assay
T17 construct: purchased Carna Biosciences

FTI1 = molecular target: T18, FTI1 (Homo sapiens, UniProt P17948); assay: mobility shift assay
T18 construct: purchased Carna Biosciences

CDK2/CycA2 = molecular target: T19, CDK2/CycA2 (Homo sapiens, UniProt P24941); assay: mobility shift assay
T19 construct: purchased Carna Biosciences

BRSK1 = molecular target: T20, BRSK1 (Homo sapiens, UniProt Q8TDC3); assay: mobility shift assay
T20 construct: purchased Carna Biosciences

ACK = molecular target: T21, ACK (Homo sapiens, UniProt Q07912); assay: mobility shift assay
T21 construct: purchased Carna Biosciences

CaMK2δ = molecular target: T22, CaMK2δ (Homo sapiens, UniProt Q13557); assay: mobility shift assay
T22 construct: purchased Carna Biosciences

PGK = molecular target: T23, PGK (Homo sapiens, UniProt Q13976); assay: mobility shift assay
T23 construct: purchased Carna Biosciences

ABL(T315I) = molecular target: T24, ABL(T315I) (Homo sapiens, UniProt P00519, T315I); assay: mobility shift assay
T24 construct: purchased Carna Biosciences

NuaK1 = molecular target: T25, NuaK1 (Homo sapiens, UniProt O60285); assay: mobility shift assay
T25 construct: purchased Carna Biosciences

MAPKAPK5 = molecular target: T26, MAPKAPK5 (Homo sapiens, UniProt Q8IW41); assay: mobility shift assay
T26 construct: purchased Carna Biosciences

Haspin = molecular target: T27, Haspin (Homo sapiens, UniProt Q8TF76); assay: mobility shift assay
T27 construct: purchased Carna Biosciences

LYNb = molecular target: T28, LYNb (Homo sapiens, UniProt P07948); assay: mobility shift assay
T28 construct: purchased Carna Biosciences

NPM1-ALK = molecular target: T29, NPM1-ALK (Homo sapiens, UniProt Q9UM73); assay: mobility shift assay
T29 construct: purchased Carna Biosciences; the other entry of the earlier key: NPM1 (P06748, Nucleophosmin)

EML4-ALK = molecular target: T30, EML4-ALK (Homo sapiens, UniProt Q9UM73); assay: mobility shift assay
T30 construct: EML4 (fusion partner, Q9HC35); purchased Carna Biosciences; the other entry of the earlier key: EML4 (Q9HC35, Echinoderm microtubule-associated protein-like 4)

ALK(G1202R) = molecular target: T31, ALK(G1202R) (Homo sapiens, UniProt Q9UM73, G1202R); assay: mobility shift assay
T31 construct: purchased Carna Biosciences

ALK(R1275Q) = molecular target: T32, ALK(R1275Q) (Homo sapiens, UniProt Q9UM73, R1275Q); assay: mobility shift assay
T32 construct: purchased Carna Biosciences

SkMLCK = molecular target: T33, SkMLCK (Homo sapiens, UniProt Q9H1R3); assay: mobility shift assay
T33 construct: purchased Carna Biosciences

ALK(F1174L) = molecular target: T34, ALK(F1174L) (Homo sapiens, UniProt Q9UM73, F1174L); assay: mobility shift assay
T34 construct: purchased Carna Biosciences

RAK4 = molecular target: T35, RAK4 (Homo sapiens, UniProt Q9NWZ3); assay: mobility shift assay
T35 construct: purchased Carna Biosciences

MARK1 = molecular target: T36, MARK1 (Homo sapiens, UniProt Q9P0L2); assay: mobility shift assay
T36 construct: purchased Carna Biosciences

EGFR(α746-750) = molecular target: T37, EGFR(α746-750) (Homo sapiens, UniProt P00533, DEL746-750); assay: mobility shift assay
T37 construct: purchased Carna Biosciences

p38γ = molecular target: T38, p38γ (Homo sapiens, UniProt P53778); assay: mobility shift assay
T38 construct: purchased Carna Biosciences

CHK1 = molecular target: T39, CHK1 (Homo sapiens, UniProt O14757); assay: mobility shift assay
T39 construct: purchased Carna Biosciences

PAK6 = molecular target: T40, PAK6 (Homo sapiens, UniProt Q9NQU5); assay: mobility shift assay
T40 construct: purchased Carna Biosciences

T12 sequence (P80192 whole entry): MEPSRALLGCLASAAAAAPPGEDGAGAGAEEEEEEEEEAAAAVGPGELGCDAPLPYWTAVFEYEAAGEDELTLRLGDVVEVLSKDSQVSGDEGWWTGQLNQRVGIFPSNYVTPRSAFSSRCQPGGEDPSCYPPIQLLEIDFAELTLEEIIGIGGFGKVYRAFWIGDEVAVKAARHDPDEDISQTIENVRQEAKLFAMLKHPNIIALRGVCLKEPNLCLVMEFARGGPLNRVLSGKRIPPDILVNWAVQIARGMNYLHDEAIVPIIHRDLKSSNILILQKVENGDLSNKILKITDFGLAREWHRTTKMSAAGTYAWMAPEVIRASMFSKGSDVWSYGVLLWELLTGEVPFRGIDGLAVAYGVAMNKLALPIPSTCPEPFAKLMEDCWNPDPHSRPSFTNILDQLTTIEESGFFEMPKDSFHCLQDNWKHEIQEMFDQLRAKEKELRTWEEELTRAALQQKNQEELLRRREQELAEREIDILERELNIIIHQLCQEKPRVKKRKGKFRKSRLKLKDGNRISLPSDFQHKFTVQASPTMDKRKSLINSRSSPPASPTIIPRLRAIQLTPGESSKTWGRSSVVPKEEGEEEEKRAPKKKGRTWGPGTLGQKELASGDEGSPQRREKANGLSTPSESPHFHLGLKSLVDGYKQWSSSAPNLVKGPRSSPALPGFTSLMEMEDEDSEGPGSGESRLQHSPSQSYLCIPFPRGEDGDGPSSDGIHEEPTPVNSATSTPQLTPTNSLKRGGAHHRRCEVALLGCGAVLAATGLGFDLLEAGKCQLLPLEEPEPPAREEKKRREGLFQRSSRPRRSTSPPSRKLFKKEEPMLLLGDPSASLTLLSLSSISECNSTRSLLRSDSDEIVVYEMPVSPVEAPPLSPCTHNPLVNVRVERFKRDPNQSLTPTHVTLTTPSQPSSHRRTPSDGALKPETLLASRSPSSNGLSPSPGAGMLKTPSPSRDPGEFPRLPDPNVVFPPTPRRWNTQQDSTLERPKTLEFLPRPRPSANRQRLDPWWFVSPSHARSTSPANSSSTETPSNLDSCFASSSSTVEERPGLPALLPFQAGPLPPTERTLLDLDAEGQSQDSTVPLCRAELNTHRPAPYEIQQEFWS
T2 sequence (O14965 whole entry): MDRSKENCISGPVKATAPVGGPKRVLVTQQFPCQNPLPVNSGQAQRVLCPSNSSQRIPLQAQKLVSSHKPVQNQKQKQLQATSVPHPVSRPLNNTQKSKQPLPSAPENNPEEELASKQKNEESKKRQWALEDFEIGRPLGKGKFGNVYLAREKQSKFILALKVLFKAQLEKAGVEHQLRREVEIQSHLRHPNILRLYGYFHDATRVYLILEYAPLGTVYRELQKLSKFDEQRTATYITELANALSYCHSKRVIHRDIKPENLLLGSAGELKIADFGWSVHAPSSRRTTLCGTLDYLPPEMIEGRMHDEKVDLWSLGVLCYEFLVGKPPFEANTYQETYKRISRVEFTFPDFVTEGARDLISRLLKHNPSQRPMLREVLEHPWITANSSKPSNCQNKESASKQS
T9 sequence (P51817 whole entry): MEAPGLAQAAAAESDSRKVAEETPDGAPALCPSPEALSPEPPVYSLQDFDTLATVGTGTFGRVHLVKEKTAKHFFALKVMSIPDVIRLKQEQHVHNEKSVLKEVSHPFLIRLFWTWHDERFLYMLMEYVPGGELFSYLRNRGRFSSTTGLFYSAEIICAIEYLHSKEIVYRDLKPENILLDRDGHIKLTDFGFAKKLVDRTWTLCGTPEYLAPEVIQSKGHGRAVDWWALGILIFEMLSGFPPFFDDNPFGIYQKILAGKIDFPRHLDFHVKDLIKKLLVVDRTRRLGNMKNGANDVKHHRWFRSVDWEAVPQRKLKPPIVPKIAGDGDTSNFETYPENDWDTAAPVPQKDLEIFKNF
T29 sequence (Q9UM73 with tags, fused parts or gaps): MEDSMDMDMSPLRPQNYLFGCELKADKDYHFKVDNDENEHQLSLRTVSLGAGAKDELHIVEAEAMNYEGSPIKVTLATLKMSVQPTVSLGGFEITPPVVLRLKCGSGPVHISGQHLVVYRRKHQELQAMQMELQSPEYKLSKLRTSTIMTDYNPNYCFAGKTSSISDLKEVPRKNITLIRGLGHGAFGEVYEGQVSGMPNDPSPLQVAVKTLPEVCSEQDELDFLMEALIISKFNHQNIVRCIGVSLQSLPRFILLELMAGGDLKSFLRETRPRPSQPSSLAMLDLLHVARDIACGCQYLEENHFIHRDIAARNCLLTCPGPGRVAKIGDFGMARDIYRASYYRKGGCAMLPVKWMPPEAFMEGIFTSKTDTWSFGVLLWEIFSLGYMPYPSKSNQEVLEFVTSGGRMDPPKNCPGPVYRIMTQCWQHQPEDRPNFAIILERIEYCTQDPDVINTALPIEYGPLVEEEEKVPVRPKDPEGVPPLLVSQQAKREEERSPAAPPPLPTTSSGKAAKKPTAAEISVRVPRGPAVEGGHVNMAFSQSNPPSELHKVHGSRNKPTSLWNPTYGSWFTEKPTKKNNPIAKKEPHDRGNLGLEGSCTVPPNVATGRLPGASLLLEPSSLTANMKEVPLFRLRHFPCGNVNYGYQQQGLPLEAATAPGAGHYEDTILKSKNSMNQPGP
T32 sequence (Q9UM73 19-1620 R1275Q): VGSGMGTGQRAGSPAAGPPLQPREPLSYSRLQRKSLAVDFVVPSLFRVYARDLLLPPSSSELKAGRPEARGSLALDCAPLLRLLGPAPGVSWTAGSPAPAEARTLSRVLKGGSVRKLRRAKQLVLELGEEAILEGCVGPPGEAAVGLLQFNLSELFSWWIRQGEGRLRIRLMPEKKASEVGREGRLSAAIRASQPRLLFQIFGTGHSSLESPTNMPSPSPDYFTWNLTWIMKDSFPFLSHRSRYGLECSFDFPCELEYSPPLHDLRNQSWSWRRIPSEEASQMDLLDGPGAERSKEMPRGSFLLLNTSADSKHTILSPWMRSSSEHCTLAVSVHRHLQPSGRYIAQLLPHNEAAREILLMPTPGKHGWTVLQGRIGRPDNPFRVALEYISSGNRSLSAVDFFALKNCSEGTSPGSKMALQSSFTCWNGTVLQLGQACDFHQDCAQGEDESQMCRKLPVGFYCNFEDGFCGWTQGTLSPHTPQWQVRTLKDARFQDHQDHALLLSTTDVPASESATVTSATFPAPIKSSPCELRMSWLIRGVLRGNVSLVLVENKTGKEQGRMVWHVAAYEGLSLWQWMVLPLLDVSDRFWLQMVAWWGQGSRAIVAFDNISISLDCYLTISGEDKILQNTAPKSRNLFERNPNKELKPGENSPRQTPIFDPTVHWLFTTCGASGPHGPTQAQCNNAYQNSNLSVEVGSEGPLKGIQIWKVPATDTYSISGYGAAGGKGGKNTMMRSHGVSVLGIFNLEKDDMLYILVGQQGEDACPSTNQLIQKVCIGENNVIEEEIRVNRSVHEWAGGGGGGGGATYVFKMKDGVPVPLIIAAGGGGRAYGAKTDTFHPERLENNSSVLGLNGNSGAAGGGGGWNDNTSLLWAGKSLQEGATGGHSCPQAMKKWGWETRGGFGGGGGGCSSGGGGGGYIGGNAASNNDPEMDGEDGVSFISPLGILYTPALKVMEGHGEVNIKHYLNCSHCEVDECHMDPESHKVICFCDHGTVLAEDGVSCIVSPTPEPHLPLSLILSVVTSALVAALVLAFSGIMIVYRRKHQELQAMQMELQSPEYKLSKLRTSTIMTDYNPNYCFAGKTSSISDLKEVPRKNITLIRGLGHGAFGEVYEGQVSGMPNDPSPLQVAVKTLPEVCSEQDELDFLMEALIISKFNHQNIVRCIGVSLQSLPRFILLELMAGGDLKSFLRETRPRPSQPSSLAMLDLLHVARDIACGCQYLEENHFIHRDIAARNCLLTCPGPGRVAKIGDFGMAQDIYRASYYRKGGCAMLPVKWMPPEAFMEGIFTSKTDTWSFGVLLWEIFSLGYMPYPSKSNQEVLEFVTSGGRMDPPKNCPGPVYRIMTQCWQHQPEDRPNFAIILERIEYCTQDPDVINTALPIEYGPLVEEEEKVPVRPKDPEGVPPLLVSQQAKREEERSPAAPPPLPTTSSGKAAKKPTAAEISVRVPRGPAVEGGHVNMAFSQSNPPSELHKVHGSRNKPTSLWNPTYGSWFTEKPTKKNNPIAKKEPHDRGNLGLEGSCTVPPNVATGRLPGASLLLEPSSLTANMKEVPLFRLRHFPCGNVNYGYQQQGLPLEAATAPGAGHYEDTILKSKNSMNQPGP
T28 sequence (P07948 1-491 isoform P07948-2): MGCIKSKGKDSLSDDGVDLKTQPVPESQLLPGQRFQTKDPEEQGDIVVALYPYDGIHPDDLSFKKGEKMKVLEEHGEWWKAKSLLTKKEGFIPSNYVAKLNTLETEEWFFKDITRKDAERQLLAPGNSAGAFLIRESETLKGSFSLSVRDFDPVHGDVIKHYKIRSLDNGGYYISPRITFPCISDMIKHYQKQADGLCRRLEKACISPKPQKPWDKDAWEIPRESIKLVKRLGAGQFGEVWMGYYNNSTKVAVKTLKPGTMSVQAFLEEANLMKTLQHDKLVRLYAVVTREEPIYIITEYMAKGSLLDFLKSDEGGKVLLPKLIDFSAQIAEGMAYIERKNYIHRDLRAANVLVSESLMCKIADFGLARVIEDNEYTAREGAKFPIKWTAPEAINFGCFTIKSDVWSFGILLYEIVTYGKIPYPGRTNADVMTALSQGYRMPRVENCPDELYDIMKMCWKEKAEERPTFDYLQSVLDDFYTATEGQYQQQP
T31 sequence (Q9UM73 19-1620 G1202R): as the sequence (Q9UM73 19-1620 R1275Q) above, with G1184R, Q1257R counted along it
T15 sequence (Q96KB5 whole entry): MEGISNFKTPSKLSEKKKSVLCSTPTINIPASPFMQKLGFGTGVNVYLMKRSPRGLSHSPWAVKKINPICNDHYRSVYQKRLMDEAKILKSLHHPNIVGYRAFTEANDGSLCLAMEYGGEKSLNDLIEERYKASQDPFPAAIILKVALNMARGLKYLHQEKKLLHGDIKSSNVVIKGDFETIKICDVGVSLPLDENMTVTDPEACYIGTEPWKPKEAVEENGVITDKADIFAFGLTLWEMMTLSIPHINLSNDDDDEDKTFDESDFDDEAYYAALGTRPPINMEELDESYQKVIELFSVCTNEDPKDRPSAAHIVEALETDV
T34 sequence (Q9UM73 19-1620 F1174L): as the sequence (Q9UM73 19-1620 R1275Q) above, with F1156L, Q1257R counted along it

C[C@@H]1CC[C@H]2C(C)(C)CCC[C@]2(C)c2c1oc1c(C=O)c(O)c(O)cc21 [LG-1, liphagal]
inhibition at 10 µM (NEK6): 65.4%
inhibition at 10 µM (AurA): 53.9%
inhibition at 10 µM (RSK1): 34.3%
inhibition at 10 µM (CLK1): 30.1%
inhibition at 10 µM (NEK7): 24.4%
inhibition at 10 µM (MST 1): 24.3%
inhibition at 10 µM (EPHA6): 23%
inhibition at 10 µM (PYK2): 21.6%
inhibition at 10 µM (PRKX): 20%
inhibition at 10 µM (PLK2): 19.7%
inhibition at 10 µM (CDK5/p25): 17.8%
inhibition at 10 µM (MLK1_Cascade): 16.3%
inhibition at 10 µM (TRKB): 15.8%
inhibition at 10 µM (TAK1-TAB1_Cascade): 13.9%
inhibition at 10 µM (PBK): 13%
inhibition at 10 µM (TRKC): 11.3%
inhibition at 10 µM (LCK): 11%
inhibition at 10 µM (FTI1): 10.4%
inhibition at 10 µM (CDK2/CycA2): 10.3%
inhibition at 10 µM (BRSK1): 9.2%
inhibition at 10 µM (ACK): 8.4%
inhibition at 10 µM (CaMK2δ): 7.7%
inhibition at 10 µM (PGK): 6.1%
inhibition at 10 µM (ABL(T315I)): 6.1%
inhibition at 10 µM (NuaK1): 6%
inhibition at 10 µM (MAPKAPK5): 4.8%
inhibition at 10 µM (Haspin): 3.3%
inhibition at 10 µM (LYNb): 2.8%
inhibition at 10 µM (NPM1-ALK): 2.3%
inhibition at 10 µM (EML4-ALK): 1.1%
inhibition at 10 µM (ALK(G1202R)): -0.3%
inhibition at 10 µM (ALK(R1275Q)): -0.5%
inhibition at 10 µM (SkMLCK): -1.3%
inhibition at 10 µM (ALK(F1174L)): -1.8%
inhibition at 10 µM (RAK4): -2.8%
inhibition at 10 µM (MARK1): -3.5%
inhibition at 10 µM (EGFR(α746-750)): -5.1%
inhibition at 10 µM (p38γ): -5.6%
inhibition at 10 µM (CHK1): -15.3%
inhibition at 10 µM (PAK6): -99.3%
